Measurements from US6469146B1, “Radiopharmaceutical products suitable for the selective labeling of lymphocytes, and their preparation” (Cis Bio International, priority 2000, dated 2002).

Legend:
[1] = test system: human blood; experiment: Labeling of blood cells: yield of cell labeling in whole blood; type: cell-based; conditions: 2 mCi (74 MBq) in 3 mL fresh human blood, 10 minutes, after washings
Method: (§1) The radiopharmaceuticals of table I (2 mCi; 74 MBq) are incubated in 3 mL of a fresh sample of human blood for 10 minutes under slow shaking. The blood composition depends upon each sample taken from healthy volunteers (average composition: 1.6±0.3.10^10 Red Globules (RG) and 2.2±0.3.10^7 White Globules (WG) with 1.2±0.3.10^7 Polymorphs (57±9%) and 0.7±0.3.10^7 Lymphocytes (35±4%)]. Non-bound radioactivity is removed by successive washings (2×10 mL of RPMI culture medium 1640) of 10 minutes at 600 g. The yield of cell labeling is determined in a CAPINTEC CRC 120 activimeter. Cell viability is controlled by the Trypan blue exclusion test.
(§2) The results obtained, namely the labeling yield (Yield) and the percentages of activity in the separated fractions are given in tables 3 to 5.

[2] = test system: whole blood; experiment: Cell separation on whole blood (Polymorphprep gradient), activity in separated fractions; type: cell-based, human; set-up: tested at 2 mCi (74 MBq) in 3 mL blood; conditions: for Cell separation on whole blood (activity %): Polymorphprep: fraction: Polymorphprep gradient; for Cell separation on whole blood (activity %): Erythrocytes: fraction: erythrocytes; for Cell separation on whole blood (activity %): Leukocytes: fraction: leukocytes; for Cell separation on whole blood (activity %): Medium: fraction: medium
Method: as §1, §2
In a first experiment, a separation of the blood constituents is made on a double density Polymorphprep® gradient.
Whole blood from healthy volunteers is labeled with 2 mCi of [^99mTc(ArCS3)2(ArCS2)] following the method described above. The blood constituents are then separated by the Polymorphprep® double density gradient into two separate fractions: lymphocytes and polymorphs/erythrocytes. The whole blood, diluted in 2-3 mL RPMI, is initially delicately placed on the Polymorphprep® gradient and then centrifuged (300 g, 20 min, 37° C.). […] Counting is made on each fraction using a MAXM Y07 00 367 counter in order to confirm cell constitution.

| Compound | Yield (±3%) of cell labeling [1] [%] | Cell separation on whole blood (activity %): Polymorphprep [2] [%] | Cell separation on whole blood (activity %): Erythrocytes [2] [%] | Cell separation on whole blood (activity %): Leukocytes [2] [%] | Cell separation on whole blood (activity %): Medium [2] [%] |
| --- | --- | --- | --- | --- | --- |
| CCc1ccccc1C(=S)S[S][99Tc]([S]SC(=S)c1ccccc1CC)[S]C(=S)c1ccccc1CC [Example 10, [^99mTc(2-EtPhCS3)2(2-EtPhCS2)]] | 92 | 2 | 22 | 76 | 2 |
| COc1cccc(C(=S)S[S][99Tc]([S]SC(=S)c2cccc(OC)c2)[S]C(=S)c2cccc(OC)c2)c1 [Example 15, [^99mTc(3-MeOPhCS3)2(3-MeOPhCS2)]] | 99 | 2 | 25 | 73 |  |
| Oc1ccc(C(=S)S[S][99Tc]([S]SC(=S)c2ccc(O)cc2)[S]C(=S)c2ccc(O)cc2)cc1 [Example 18, [^99mTc(4-OHPhCS3)2(4-OHPhCS2)]] | 93 | 3 | 7 | 89 | 1 |
| COc1cccc(C(=S)S[S][99Tc]([S]SC(=S)c2cccc(OC)c2)[S]C(=S)c2cccc(OC)c2)c1 [Example 16, [^99mTc(3-MeOPhCS3)2(3-MeOPhCS2)]] | 98 | 2 | 16 | 79 | 3 |
| Oc1ccc(C(=S)S[S][99Tc]([S]SC(=S)c2ccc(O)cc2)[S]C(=S)c2ccc(O)cc2)cc1 [Example 17, [^99mTc(4-OHPhCS3)2(4-OHPhCS2)]] | 93 | 1 | 12 | 85 | 2 |
| [^99mTc(C6H12CS3)2CS2(C6H12CS2)] [Example 31] | 63 | 3 | 29 | 68 |  |
| Cc1ccc(C(=S)S[S][99Tc]([S]SC(=S)c2ccc(C)cc2)[S]C(=S)c2ccc(C)cc2)cc1 [Example 6, [^99mTc(4-MePhCS3)2(4-MePhCS2)]] | 95 | 2 | 20 | 78 |  |
| S=C(S[S][99Tc]([S]SC(=S)c1cccc2ccccc12)[S]C(=S)c1cccc2ccccc12)c1cccc2ccccc12 [Example 24, [^99mTc(1-naphCS3)2(1-naphCS2)]] | 74 |  | 46 | 53 | 1 |
| S=C(CCc1ccccc1)S[S][99Tc]([S]SC(=S)CCc1ccccc1)[S]C(=S)CCc1ccccc1 [Example 29, [^99mTc(PhCH2CH2CS3)2(PhCH2CH2CS2)]] | 43 | 6 | 58 | 35 | 1 |
| S=C(Cc1ccccc1)S[S][99Tc]([S]SC(=S)Cc1ccccc1)[S]C(=S)Cc1ccccc1 [Example 27, [^99mTc(PhCH2CS3)2(PhCH2CS2)]] | 88 | 10 | 11 | 77 | 1 |
| S=C(S[S][99Tc]([S]SC(=S)c1cccc2ccccc12)[S]C(=S)c1cccc2ccccc12)c1cccc2ccccc12 [Example 23, [^99mTc(1-naphCS3)2(1-naphCS2)]] | 71 | 5 | 46 | 43 | 6 |
| Fc1ccc(C(=S)S[S][99Tc]([S]SC(=S)c2ccc(F)cc2)[S]C(=S)c2ccc(F)cc2)cc1 [Example 20, [^99mTc(4-FPhCS3)2 (4-FPhCS2)]] | 91 | 4 | 12 | 84 |  |
| [^99mTc(C6H12CS3)2CS2(C6H12CS2)] [Example 30] | 97 | 10 | 13 | 75 | 2 |
| CCc1ccc(C(=S)S[S][99Tc]([S]SC(=S)c2ccc(CC)cc2)[S]C(=S)c2ccc(CC)cc2)cc1 [Example 7, [^99mTc(4-EtPhCS3)2(4-EtPhCS2)]] | 93 | 3 | 12 | 83 | 2 |
| Fc1ccc(C(=S)S[S][99Tc]([S]SC(=S)c2ccc(F)cc2)[S]C(=S)c2ccc(F)cc2)cc1 [Example 19, [^99mTc(4-FPhCS3)2 (4-FPhCS2)]] | 99 | 4 | 15 | 80 | 1 |
| S=C(CCc1ccccc1)S[S][99Tc]([S]SC(=S)CCc1ccccc1)[S]C(=S)CCc1ccccc1 [Example 28, [^99mTc(PhCH2CH2CS3)2(PhCH2CH2CS2)]] | 91 | 2 | 16 | 80 | 2 |
| Cc1cc(C)c(C(=S)S[S][99Tc]([S]SC(=S)c2cc(C)c(C)cc2C)[S]C(=S)c2cc(C)c(C)cc2C)cc1C [Example 22, [^99mTc(2,4,5-Me3PhCS3)2(2,4,5-Me3PhCS2)]] | 95 | 2 | 20 | 78 |  |
| CCOc1ccc(C(=S)S[S][99Tc]([S]SC(=S)c2ccc(OCC)cc2)[S]C(=S)c2ccc(OCC)cc2)cc1 [Example 13, [^99mTc(4-EtOPhCS3)2(4-EtOPhCS2)]] | 99 | 1 | 29 | 70 |  |
| Cc1cc(C)c(C(=S)S[S][99Tc]([S]SC(=S)c2cc(C)c(C)cc2C)[S]C(=S)c2cc(C)c(C)cc2C)cc1C [Example 21, [^99mTc(2,4,5-Me3PhCS3)2(2,4,5-Me3PhCS2)]] | 90 | 2 | 15 | 82 | 1 |
